Assay [1] concerns Pneumocystis carinii. The assay can be described thus: In vitro ATP content of Pneumocystis (luciferin-luciferase assay).
Assay [2] concerns Pneumocystis murina. The assay is described as above.
The test system of assay [3] is Histoplasma capsulatum. Format: cell-based. Conditions: 24-hour treatment.
The subject of assay [4] is C. parapsilosis. As to the kind of experiment: MIC against Candida species (Table 4). Conditions: 24 h.
For assay [5], the system named is C. krusei. As to the kind of experiment: MIC against Candida species (Table 4). Conditions: Pichia kudriavzevii, 24 h.
The subject of assay [6] is C. glabrata. The assay can be described thus: MIC against Candida species (Table 4). The conditions noted are these: Nakaseomyces glabratus, 24 h.
For assay [7], the system named is C. guilliermondii. The assay can be described thus: MIC against Candida species (Table 4). The conditions noted are these: Meyerozyma guilliermondii, 24 h.
The test system of assay [8] is Cryptococcus neoformans. As to the kind of experiment: MIC against Cryptococcus neoformans (Table 4). The conditions noted are these: Cryptococcus neoformans, 72 h.
Assay [9] deals with Paeceilomyces variotii. As to the kind of experiment: MIC, CLSI M38-A2 broth dilution (Table 1). Format: cell-based. Conditions: isolate QC. A general note: Dilution methods test growth across graded concentrations, often in twofold steps.
In assay [10] the test system is Rhizopus oryzae. As to the kind of experiment: MIC, CLSI M38-A2 broth dilution (Table 1). The class given is cell-based.
For assay [11], the system named is Scedosporium apiospermum. The assay can be described thus: MIC, CLSI M38-A2 broth dilution (Table 1). The class given is cell-based.
Assay [12] concerns Lomentospora prolificans. The assay can be described thus: MIC, CLSI M38-A2 broth dilution (Table 1). Format: cell-based. The conditions noted are these: isolate LP1, 48 hours.
The subject of assay [13] is P. variotii. The assay can be described thus: MIC (Table 5). Conditions: Paecilomyces variotii, read-out: MIC 100%.
The subject of assay [14] is Rhizopus oryzae. The assay can be described thus: MIC (Table 5). Conditions: Rhizopus arrhizus, 24 h.
The test system of assay [15] is Apophysomyces. As to the kind of experiment: MIC (Table 5). Conditions: 24 h.
Assay [16] deals with Aspergillus fumigatus. As to the kind of experiment: Recovery of Aspergillus fumigatus mycelia growth after removal of antifungal drugs (MTT). The class given is cell-based. Conditions: treated 12 hours, drug removed, 24 hours more.
Assay [17] deals with Fusarium oxysporum. The assay can be described thus: MIC, CLSI M38-A2 broth dilution (Table 1). The class given is cell-based.
The test system of assay [18] is Fusarium solani. As to the kind of experiment: MIC, CLSI M38-A2 broth dilution (Table 1). Format: cell-based. Conditions: isolate FS1, 48 hours.
The subject of assay [19] is Blastomyces dermatitidis. The assay can be described thus: MIC, macrodilution method (Table 1). The class given is cell-based. The conditions noted are these: 96 hours.
The test system of assay [20] is Fusarium sp. As to the kind of experiment: MIC (Table 5). Format: cell-based. The conditions noted are these: Fusarium, read-out: MIC 100%.
Assay [21] concerns Blastomyces dermatitidis. As to the kind of experiment: MIC (Table 6). Format: cell-based. The conditions noted are these: read-out: MIC VORI 100% 50%.
The subject of assay [22] is Coccidioides sp. The assay can be described thus: microbe, parasite or virus in culture. The class given is cell-based. The conditions noted are these: Coccidioides.
For assay [23], the system named is Scedosporium sp. As to the kind of experiment: MIC (Table 5).

Values after ≈ are worked out from the molar mass of the structure shown. Read-outs that look alike come from different tables or passages of the source. Where only a bound is given, the exact number is not on record here.

As a reminder, the MIC50 is an inhibitory concentration at the 50% level, which refers to growth in some studies and to a panel of isolates in others.

Regarding `CC1(C)S[C@@H]2[C@H](NC(=O)[C@H](N)c3ccccc3)C(=O)N2[C@H]1C(=O)O` [Ampicillin, ampicillin, reference compound], the “Pm % Reduction in ATP/Vehicle Control” value in assay [1] (Table 2, 10 μg/ml, 24 hours) was determined as 0%; in assay [1] (Table 2, 10 μg/ml, 48 hours) it was 0%; in [1] (Table 2, 10 μg/ml, 72 hours) it was 0%; in [2] (Table 3, 10 μg/ml, 24 hours), 0%; in assay [2] (Table 3, 10 μg/ml, 48 hours), 0%; in assay [2] (Table 3, 10 μg/ml, 72 hours), 0%.
On to `OC(Cn1cncn1)(Cn1cncn1)c1ccc(F)cc1F` [FLU, Fluconazole, reference compound], for which, in assay [3] (then growth in absence of drug), the “reduction of fungal viability” value is recorded as “did not significantly reduce fungal viability”. Further, the “viability staining of yeasts” value in [3] (ethidium bromide / fluorescein staining) was “only fungistatic”. Besides, the MIC50 was 0.25 µg/mL (≈ 0.816 µM) in assay [4] (isolate CP-1, 24 hrs); not above 0.125 µg/mL in assay [4] (isolate CP-2, 24 hrs); 0.25 µg/mL (≈ 0.816 µM) in assay [4] (isolate CP-3, 24 hrs); 0.25 µg/mL (≈ 0.816 µM) in assay [4] (isolate CP-4, 24 hrs); not above 0.125 µg/mL in assay [4] (isolate CP-5, 24 hrs); 16 µg/mL (≈ 52.2 µM) in [4] (isolate CP-6, 24 hrs). Moreover, the MIC50 in [4] (isolate CP-7, 24 hrs) came out at 16 µg/mL (≈ 52.2 µM); in [4] (isolate QC) it was 1 µg/mL (≈ 3.27 µM); in assay [5] it was 8 µg/mL (≈ 26.1 µM); in [6] (isolate CG-1, 24 hrs), 16 µg/mL (≈ 52.2 µM); in assay [6] (isolate CG-2, 24 hrs), 16 µg/mL (≈ 52.2 µM); in assay [6] (isolate CG-3, 24 hrs) it was 32 µg/mL (≈ 104 µM). Moreover, the MIC50 in [6] (isolate CG-4, 24 hrs) came to 32 µg/mL (≈ 104 µM); in assay [6] (isolate CG-5, 24 hrs), 16 µg/mL (≈ 52.2 µM); in assay [6] (isolate CG-6, 24 hrs) it was 2 µg/mL (≈ 6.53 µM); in assay [6] (isolate CG-7, 24 hrs), 2 µg/mL (≈ 6.53 µM); in assay [6] (isolate CG-8, 24 hrs), 2 µg/mL (≈ 6.53 µM); in [6] (isolate CG-9, 24 hrs) it was 2 µg/mL (≈ 6.53 µM). In addition, the MIC50 is 4 µg/mL (≈ 13.1 µM) in assay [6] (isolate CG-10, 24 hrs); 8 µg/mL (≈ 26.1 µM) in [7] (isolate Cgu-1, 24 hrs); 2 µg/mL (≈ 6.53 µM) in assay [7] (isolate Cgu-2, 24 hrs); 1 µg/mL (≈ 3.27 µM) in assay [7] (isolate Cgu-3, 24 hrs); 1 µg/mL (≈ 3.27 µM) in assay [7] (isolate Cgu-4, 24 hrs); 2 µg/mL (≈ 6.53 µM) in assay [7] (isolate Cgu-5, 24 hrs). For the same molecule, the MIC50 in [7] (isolate Cgu-6, 24 hrs) came to 8 µg/mL (≈ 26.1 µM); in assay [7] (isolate Cgu-7, 24 hrs), 4 µg/mL (≈ 13.1 µM); in [8] (isolate CN-1, 72 hrs), 4 µg/mL (≈ 13.1 µM); in [8] (isolate CN-2, 72 hrs) it was 12 µg/mL (≈ 39.2 µM); in assay [8] (isolate CN-3, 72 hrs), 64 µg/mL (≈ 209 µM).
For `CC[C@@H]([C@H](C)O)n1ncn(-c2ccc(N3CCN(c4ccc(OC[C@@H]5CO[C@@](Cn6cncn6)(c6ccc(F)cc6F)C5)cc4)CC3)cc2)c1=O` [POS, Posaconazole, reference compound], the “MIC 100%” value in assay [9] was determined as 0.25 gg/m1; in [10] (isolate RO1, 24 hours), 1 gg/m1; in [10] (isolate RO2, 24 hours) it was 1 gg/m1; in [10] (isolate RO3, 24 hours) it was 1 gg/m1; in assay [11] (isolate SA2, 72 hours), 2 gg/m1; in [12], 0.5 gg/m1. The MIC in [13] (24 h) was found to be 0.06 µg/mL (≈ 0.0856 µM); in assay [14] (read-out: MIC 100%, isolate R-1, 24 hrs), 0.5 µg/mL (≈ 0.713 µM); in assay [14] (read-out: MIC 100%, isolate R-2, 24 hrs) it was 0.5 µg/mL (≈ 0.713 µM); in assay [14] (read-out: MIC 100%, isolate R-3, 24 hrs), 0.5 µg/mL (≈ 0.713 µM); in assay [14] (read-out: MIC 100%, isolate R-4, 24 hrs), 0.125 µg/mL (≈ 0.178 µM); in assay [14] (read-out: MIC 100%, isolate R-5, 24 hrs), 0.25 µg/mL (≈ 0.357 µM). In addition, the MIC in assay [14] (read-out: MIC 100%, isolate R-6, 24 hrs) is 0.125 µg/mL (≈ 0.178 µM); in assay [15] (read-out: MIC 100%, isolate AE-1, 24 hrs) it was 0.125 µg/mL (≈ 0.178 µM); in [15] (read-out: MIC 100%, isolate AE-2, 24 hrs), 1 µg/mL (≈ 1.43 µM).
For the molecule `N=C(N)c1ccc(OCCCCCOc2ccc(C(=N)N)cc2)cc1` [Pent., pentamidine isethionate, reference compound], the “Pm % Reduction in ATP/Vehicle Control” value in assay [1] (Table 2, 1 μg/ml, 24 hours) was 74.18%; in assay [1] (Table 2, 1 μg/ml, 48 hours), 97.06%; in assay [1] (Table 2, 1 μg/ml, 72 hours), 97.47%; in [2] (Table 3, 1 μg/ml, 24 hours), 72.06%; in assay [2] (Table 3, 1 μg/ml, 48 hours), 87.94%; in [2] (Table 3, 1 μg/ml, 72 hours) it was 93.85%.
Take `C[C@@H](c1ncncc1F)[C@](O)(Cn1cncn1)c1ccc(F)cc1F` [VORI, Voriconazole, reference compound]: the “recovery of mycelia growth after removal of drug” value in [16] was “leaves mycelia viable”. The “MIC 100%” value came out at 0.125 gg/m1 in [9]; 16 gg/m1 in assay [17] (isolate FO1, 48 hours); 16 gg/m1 in assay [17] (isolate FO2, 48 hours); 8 gg/m1 in assay [18]; 0.25 gg/m1 in assay [11] (isolate SA1, 72 hours); 0.125 gg/m1 in assay [11] (isolate SA2, 72 hours). In addition, the “MIC 100%” value is 16 gg/m1 in [12]; 0.125 gg/m1 in assay [19] (isolate BD1, macrodilution); “≦0.03 gg/m1” in assay [19] (isolate BD2, macrodilution); “≦0.03 gg/m1” in assay [19] (isolate BD3, macrodilution). Moreover, the MIC in assay [20] (isolate F-1, 48/72 hrs) was 8 µg/mL (≈ 22.9 µM); in [20] (isolate F-2, 48/72 hrs), 8 µg/mL (≈ 22.9 µM); in assay [20] (isolate F-3, 48/72 hrs), more than 16 µg/mL; in [21] (isolate BD1, 72/192 hrs), not above 0.03 µg/mL; in assay [21] (isolate BD2, 72/192 hrs), 0.125 µg/mL (≈ 0.358 µM); in assay [21] (isolate BD3, 72/192 hrs), 0.125 µg/mL (≈ 0.358 µM). Also, the MIC worked out at 0.125 µg/mL (≈ 0.358 µM) in assay [22] (read-out: MIC VORI 100% 50%, isolate COCCI-1, 72/192 hrs); 0.25 µg/mL (≈ 0.716 µM) in [22] (read-out: MIC VORI 100% 50%, isolate COCCI-2, 72/192 hrs); 0.125 µg/mL (≈ 0.358 µM) in [22] (read-out: MIC VORI 100% 50%, isolate COCCI-3, 72/192 hrs); 0.06 µg/mL (≈ 0.172 µM) in assay [13]; 0.5 µg/mL (≈ 1.43 µM) in assay [23] (read-out: MIC 100%, isolate S-1, 48/72 hrs); 16 µg/mL (≈ 45.8 µM) in assay [23] (read-out: MIC 100%, isolate S-2, 48/72 hrs).
Regarding `C[C@@H]1[C@H](O)[C@@H](C)/C=C/C=C/C=C/C=C/C=C/C=C/C=C/[C@H](O[C@@H]2O[C@H](C)[C@@H](O)[C@H](N)[C@@H]2O)C[C@@H]2O[C@](O)(C[C@@H](O)C[C@@H](O)[C@H](O)CC[C@@H](O)C[C@@H](O)CC(=O)O[C@H]1C)C[C@H](O)[C@H]2C(=O)O` [amphotericin B], the “recovery of mycelia growth after removal of drug” value in assay [16] is on record as “no viable Aspergillus fumigatus mycelia”.
Same read-out and setting: for `CC[C@H](C)C[C@H](C)CCCCCCCCC(=O)N[C@H]1C[C@@H](O)[C@@H](NCCN)NC(=O)[C@@H]2[C@@H](O)CCN2C(=O)[C@H]([C@H](O)CCN)NC(=O)[C@H]([C@H](O)[C@@H](O)c2ccc(O)cc2)NC(=O)[C@@H]2C[C@@H](O)CN2C(=O)[C@H]([C@@H](C)O)NC1=O` [caspofungin] the value was “leaves mycelia viable”.
